Experimental data published in patent publication US7820623B2 (priority 2006, dated 2010).
Bridge positions count the residues as written; N and C are the ends. Square brackets hold non-standard residues; d marks the D form. Peptide text beside a SMILES is read from it. 1Nal = N[C@@H](Cc1cccc2ccccc12)C(=O)O

Key:
[1] = test system: thapsigargin-induced IL-2 production in human whole blood; details: read-out: Analogue Activity (IC50) WB/IL-2
[2] = test system: thapsigargin-induced IFN-g production in human whole blood; assay type: cell-based; details: read-out: Analogue Activity (IC50) WB/IFNg

SMILES	IC50 [1] [nM]	IC50 [2] [nM]
CC[C@H](C)[C@@H]1NC(=O)[C@H](CCCCN)NC(=O)[C@@H](NC(=O)[C@H](CCCCN)NC(=O)[C@@H](NC(=O)[C@H](CC(N)=O)NC(=O)[C@@H](NC(=O)[C@@H](NC(=O)[C@@H](NC(=O)CN)C(C)C)[C@@H](C)CC)[C@@H](C)CC)C(C)C)CSSC[C@@H]2NC(=O)[C@H](CCCCN)NC(=O)CNC(=O)[C@H](Cc3ccccc3)NC(=O)[C@H](CCCNC(=N)N)NC(=O)[C@H](CCSC)NC(=O)CNC(=O)[C@H](C)NC(=O)[C@H](CCCCN)NC(=O)[C@H](CCCCN)NC(=O)[C@@H]3CSSC[C@@H](C(=O)N[C@H](C(=O)N4CCC[C@H]4C(=O)N[C@@H](CCCCN)C(=O)O)[C@@H](C)O)NC(=O)[C@H](Cc4c[nH]cn4)NC(=O)[C@H](CSSC[C@H](NC(=O)[C@H](CCC(N)=O)NC(=O)[C@H](CCCNC(=N)N)NC(=O)[C@H](CO)NC1=O)C(=O)N[C@@H](CC(C)C)C(=O)N[C@@H](CCC(=O)O)C(=O)N1CCC[C@H]1C(=O)N3)NC(=O)[C@H](CCCCN)NC(=O)[C@H](Cc1cccc3ccccc13)NC(=O)[C@H](CC(N)=O)NC(=O)[C@H](CCSC)NC2=O [G31Nal] (H-GVIINVKCKISRQCLEPCKKAGMRFGKCMN[1Nal]KCHCTPK-OH; disulfide 8-28, 14-33, 18-35)	0.331	0.467
CC[C@H](C)[C@@H]1NC(=O)[C@H](CCCCN)NC(=O)[C@@H](NC(=O)[C@H](CCCCN)NC(=O)[C@@H](NC(=O)[C@H](CC(N)=O)NC(=O)[C@@H](NC(=O)[C@@H](NC(=O)[C@@H](NC(=O)CN)C(C)C)[C@@H](C)CC)[C@@H](C)CC)C(C)C)CSSC[C@@H]2NC(=O)[C@H](CCCCN)NC(=O)CNC(=O)[C@H](Cc3ccccc3)NC(=O)[C@H](CCCNC(=N)N)NC(=O)[C@H](CCSC)NC(=O)CNC(=O)[C@H](C)NC(=O)[C@H](CCCCN)NC(=O)[C@H](CCCCN)NC(=O)[C@@H]3CSSC[C@@H](C(=O)N[C@H](C(=O)N4CCC[C@H]4C(=O)N[C@@H](CCCCN)C(=O)O)[C@@H](C)O)NC(=O)[C@H](Cc4c[nH]cn4)NC(=O)[C@H](CSSC[C@H](NC(=O)[C@H](CCC(N)=O)NC(=O)[C@H](CCCNC(=N)N)NC(=O)[C@H](CO)NC1=O)C(=O)N[C@@H](CC(C)C)C(=O)N[C@@H](CCC(=O)O)C(=O)N1CCC[C@H]1C(=O)N3)NC(=O)[C@H](CCCCN)NC(=O)[C@H](CCCNC(=N)N)NC(=O)[C@H](CC(N)=O)NC(=O)[C@H](CCSC)NC2=O [G31R]	0.314	0.343
CC[C@H](C)[C@@H]1NC(=O)[C@H](CCCCN)NC(=O)[C@@H](NC(=O)[C@H](CCCCN)NC(=O)[C@@H](NC(=O)[C@H](CC(N)=O)NC(=O)[C@@H](NC(=O)[C@@H](NC(=O)[C@@H](NC(=O)CN)C(C)C)[C@@H](C)CC)[C@@H](C)CC)C(C)C)CSSC[C@@H]2NC(=O)[C@H](CCCCN)NC(=O)CNC(=O)[C@H](Cc3ccccc3)NC(=O)[C@H](CCCNC(=N)N)NC(=O)[C@H](CCSC)NC(=O)CNC(=O)[C@H](C)NC(=O)[C@H](CCCCN)NC(=O)[C@H](CCCCN)NC(=O)[C@@H]3CSSC[C@@H](C(=O)N[C@H](C(=O)N4CCC[C@H]4C(=O)N[C@@H](CCCCN)C(=O)O)[C@@H](C)O)NC(=O)[C@H](CCCNC(=N)N)NC(=O)[C@H](CSSC[C@H](NC(=O)[C@H](CCC(N)=O)NC(=O)[C@H](CCCNC(=N)N)NC(=O)[C@H](CO)NC1=O)C(=O)N[C@@H](CC(C)C)C(=O)N[C@@H](CCC(=O)O)C(=O)N1CCC[C@H]1C(=O)N3)NC(=O)[C@H](CCCCN)NC(=O)CNC(=O)[C@H](CC(N)=O)NC(=O)[C@H](CCSC)NC2=O [H34R] (H-GVIINVKCKISRQCLEPCKKAGMRFGKCMNGKCRCTPK-OH; disulfide 8-28, 14-33, 18-35)	0.092	0.108
CC[C@H](C)[C@H](NC(=O)[C@H](C)NC(=O)[C@@H](NC(=O)CN)C(C)C)C(=O)N[C@@H](CC(N)=O)C(=O)N[C@H](C(=O)N[C@@H](CCCCN)C(=O)N[C@H]1CSSC[C@@H]2NC(=O)[C@H](CCCCN)NC(=O)CNC(=O)[C@H](Cc3ccccc3)NC(=O)[C@H](CCCNC(=N)N)NC(=O)[C@H](CCSC)NC(=O)CNC(=O)[C@H](C)NC(=O)[C@H](CCCCN)NC(=O)[C@H](CCCCN)NC(=O)[C@@H]3CSSC[C@@H](C(=O)N[C@H](C(=O)N4CCC[C@H]4C(=O)N[C@@H](CCCCN)C(=O)O)[C@@H](C)O)NC(=O)[C@H](Cc4c[nH]cn4)NC(=O)[C@H](CSSC[C@H](NC(=O)[C@H](CCC(N)=O)NC(=O)[C@H](CCCNC(=N)N)NC(=O)[C@H](CO)NC(=O)[C@H]([C@@H](C)CC)NC(=O)[C@H](CCCCN)NC1=O)C(=O)N[C@@H](CC(C)C)C(=O)N[C@@H](CCC(=O)O)C(=O)N1CCC[C@H]1C(=O)N3)NC(=O)[C@H](CCCCN)NC(=O)CNC(=O)[C@H](CC(N)=O)NC(=O)[C@H](CCSC)NC2=O)C(C)C [I3A] (H-GVAINVKCKISRQCLEPCKKAGMRFGKCMNGKCHCTPK-OH; disulfide 8-28, 14-33, 18-35)	0.0883	0.0992
CC[C@H](C)[C@@H]1NC(=O)[C@H](CCCCN)NC(=O)[C@@H](NC(=O)[C@H](CCCCN)NC(=O)[C@@H](NC(=O)[C@H](CC(N)=O)NC(=O)[C@@H](NC(=O)[C@H](CCC(=O)O)NC(=O)[C@@H](NC(=O)CN)C(C)C)[C@@H](C)CC)C(C)C)CSSC[C@@H]2NC(=O)[C@H](CCCCN)NC(=O)CNC(=O)[C@H](Cc3ccccc3)NC(=O)[C@H](CCCNC(=N)N)NC(=O)[C@H](CCSC)NC(=O)CNC(=O)[C@H](C)NC(=O)[C@H](CCCCN)NC(=O)[C@H](CCCCN)NC(=O)[C@@H]3CSSC[C@@H](C(=O)N[C@H](C(=O)N4CCC[C@H]4C(=O)N[C@@H](CCCCN)C(=O)O)[C@@H](C)O)NC(=O)[C@H](Cc4c[nH]cn4)NC(=O)[C@H](CSSC[C@H](NC(=O)[C@H](CCC(N)=O)NC(=O)[C@H](CCCNC(=N)N)NC(=O)[C@H](CO)NC1=O)C(=O)N[C@@H](CC(C)C)C(=O)N[C@@H](CCC(=O)O)C(=O)N1CCC[C@H]1C(=O)N3)NC(=O)[C@H](CCCCN)NC(=O)CNC(=O)[C@H](CC(N)=O)NC(=O)[C@H](CCSC)NC2=O [I3E] (H-GVEINVKCKISRQCLEPCKKAGMRFGKCMNGKCHCTPK-OH; disulfide 8-28, 14-33, 18-35)	0.12	0.16
CC[C@H](C)[C@@H]1NC(=O)[C@H](CCCCN)NC(=O)[C@@H](NC(=O)[C@H](CCCCN)NC(=O)[C@@H](NC(=O)[C@H](CC(N)=O)NC(=O)[C@@H](NC(=O)[C@H](Cc2cccc3ccccc23)NC(=O)[C@@H](NC(=O)CN)C(C)C)[C@@H](C)CC)C(C)C)CSSC[C@@H]2NC(=O)[C@H](CCCCN)NC(=O)CNC(=O)[C@H](Cc3ccccc3)NC(=O)[C@H](CCCNC(=N)N)NC(=O)[C@H](CCSC)NC(=O)CNC(=O)[C@H](C)NC(=O)[C@H](CCCCN)NC(=O)[C@H](CCCCN)NC(=O)[C@@H]3CSSC[C@@H](C(=O)N[C@H](C(=O)N4CCC[C@H]4C(=O)N[C@@H](CCCCN)C(=O)O)[C@@H](C)O)NC(=O)[C@H](Cc4c[nH]cn4)NC(=O)[C@H](CSSC[C@H](NC(=O)[C@H](CCC(N)=O)NC(=O)[C@H](CCCNC(=N)N)NC(=O)[C@H](CO)NC1=O)C(=O)N[C@@H](CC(C)C)C(=O)N[C@@H](CCC(=O)O)C(=O)N1CCC[C@H]1C(=O)N3)NC(=O)[C@H](CCCCN)NC(=O)CNC(=O)[C@H](CC(N)=O)NC(=O)[C@H](CCSC)NC2=O [I3Nal] (H-GV[1Nal]INVKCKISRQCLEPCKKAGMRFGKCMNGKCHCTPK-OH; disulfide 8-28, 14-33, 18-35)	0.907	0.739
CC[C@H](C)[C@@H]1NC(=O)[C@H](CCCCN)NC(=O)[C@@H](NC(=O)[C@H](CCCCN)NC(=O)[C@@H](NC(=O)[C@H](CC(N)=O)NC(=O)[C@@H](NC(=O)[C@H](CCCNC(=N)N)NC(=O)[C@@H](NC(=O)CN)C(C)C)[C@@H](C)CC)C(C)C)CSSC[C@@H]2NC(=O)[C@H](CCCCN)NC(=O)CNC(=O)[C@H](Cc3ccccc3)NC(=O)[C@H](CCCNC(=N)N)NC(=O)[C@H](CCSC)NC(=O)CNC(=O)[C@H](C)NC(=O)[C@H](CCCCN)NC(=O)[C@H](CCCCN)NC(=O)[C@@H]3CSSC[C@@H](C(=O)N[C@H](C(=O)N4CCC[C@H]4C(=O)N[C@@H](CCCCN)C(=O)O)[C@@H](C)O)NC(=O)[C@H](Cc4c[nH]cn4)NC(=O)[C@H](CSSC[C@H](NC(=O)[C@H](CCC(N)=O)NC(=O)[C@H](CCCNC(=N)N)NC(=O)[C@H](CO)NC1=O)C(=O)N[C@@H](CC(C)C)C(=O)N[C@@H](CCC(=O)O)C(=O)N1CCC[C@H]1C(=O)N3)NC(=O)[C@H](CCCCN)NC(=O)CNC(=O)[C@H](CC(N)=O)NC(=O)[C@H](CCSC)NC2=O [I3R] (H-GVRINVKCKISRQCLEPCKKAGMRFGKCMNGKCHCTPK-OH; disulfide 8-28, 14-33, 18-35)	0.148	0.18
CC[C@H](C)[C@@H]1NC(=O)[C@H](CCCCN)NC(=O)[C@@H](NC(=O)[C@H](CCCCN)NC(=O)[C@@H](NC(=O)[C@H](CC(N)=O)NC(=O)[C@H](C)NC(=O)[C@@H](NC(=O)[C@@H](NC(=O)CN)C(C)C)[C@@H](C)CC)C(C)C)CSSC[C@@H]2NC(=O)[C@H](CCCCN)NC(=O)CNC(=O)[C@H](Cc3ccccc3)NC(=O)[C@H](CCCNC(=N)N)NC(=O)[C@H](CCSC)NC(=O)CNC(=O)[C@H](C)NC(=O)[C@H](CCCCN)NC(=O)[C@H](CCCCN)NC(=O)[C@@H]3CSSC[C@@H](C(=O)N[C@H](C(=O)N4CCC[C@H]4C(=O)N[C@@H](CCCCN)C(=O)O)[C@@H](C)O)NC(=O)[C@H](Cc4c[nH]cn4)NC(=O)[C@H](CSSC[C@H](NC(=O)[C@H](CCC(N)=O)NC(=O)[C@H](CCCNC(=N)N)NC(=O)[C@H](CO)NC1=O)C(=O)N[C@@H](CC(C)C)C(=O)N[C@@H](CCC(=O)O)C(=O)N1CCC[C@H]1C(=O)N3)NC(=O)[C@H](CCCCN)NC(=O)CNC(=O)[C@H](CC(N)=O)NC(=O)[C@H](CCSC)NC2=O [I4A] (H-GVIANVKCKISRQCLEPCKKAGMRFGKCMNGKCHCTPK-OH; disulfide 8-28, 14-33, 18-35)	0.111	0.0873
